Experimental data reported in paper PMC10625584, “Deciphering triterpenoid saponin biosynthesis by leveraging transcriptome response to methyl jasmonate elicitation in Saponaria vaccaria” (Nature Communications, 2023).

Tested on: T1, SvCslG
T1 construct: gene CslG; codon-optimized CDS in pESC-URA; S. cerevisiae INVSc1 microsomal protein
Experiment: LC-MS assay with yeast microsomal protein, Michaelis-Menten fit
Format: biochemical, Gypsophila vaccaria
Settings: 20 mM Tris-HCl pH 8.0, 30 mM Mg2+, 30 °C

| Km (quillaic acid co-substrate) [µM] | Km (UDP-GlcA co-substrate) [µM] | Compound |
| --- | --- | --- |
| 65 |  | O=C(O)[C@H]1O[C@H](OP(=O)(O)OP(=O)(O)OC[C@H]2O[C@@H](n3ccc(=O)[nH]c3=O)[C@H](O)[C@@H]2O)[C@H](O)[C@@H](O)[C@@H]1O [UDP-GlcA] |
|  | 3.13 | CC1(C)CC[C@]2(C(=O)O)[C@H](O)C[C@]3(C)C(=CC[C@@H]4[C@@]5(C)CC[C@H](O)[C@@](C)(C=O)[C@@H]5CC[C@]43C)[C@@H]2C1 [QA, quillaic acid] |
